Drawing on publication doi:10.1101/2024.08.13.607785v1 (biorxiv, 2024), this text covers remaining activity for 2 compounds.

Read-outs that look alike come from different tables or passages of the source.

What all share (assay): biochemical
Common to all, as to design: species or system human cell line lysate

For assay [1], the target named is Serine/threonine-protein kinase MRCK beta ; CDC42BPB ; Q9Y5S2 (Homo sapiens, UniProt Q9Y5S2).
The target of assay [2] is Isoform 5 of Aurora kinase B ; AURKB ; Q96GD4-5 (Homo sapiens, UniProt Q96GD4).
The target of assay [3] is Rho-associated protein kinase 1 ; ROCK1 ; Q13464 (Homo sapiens, UniProt Q13464).
Chain of Rho-associated protein kinase 1 ; ROCK1 ; Q13464 (Q13464 whole entry): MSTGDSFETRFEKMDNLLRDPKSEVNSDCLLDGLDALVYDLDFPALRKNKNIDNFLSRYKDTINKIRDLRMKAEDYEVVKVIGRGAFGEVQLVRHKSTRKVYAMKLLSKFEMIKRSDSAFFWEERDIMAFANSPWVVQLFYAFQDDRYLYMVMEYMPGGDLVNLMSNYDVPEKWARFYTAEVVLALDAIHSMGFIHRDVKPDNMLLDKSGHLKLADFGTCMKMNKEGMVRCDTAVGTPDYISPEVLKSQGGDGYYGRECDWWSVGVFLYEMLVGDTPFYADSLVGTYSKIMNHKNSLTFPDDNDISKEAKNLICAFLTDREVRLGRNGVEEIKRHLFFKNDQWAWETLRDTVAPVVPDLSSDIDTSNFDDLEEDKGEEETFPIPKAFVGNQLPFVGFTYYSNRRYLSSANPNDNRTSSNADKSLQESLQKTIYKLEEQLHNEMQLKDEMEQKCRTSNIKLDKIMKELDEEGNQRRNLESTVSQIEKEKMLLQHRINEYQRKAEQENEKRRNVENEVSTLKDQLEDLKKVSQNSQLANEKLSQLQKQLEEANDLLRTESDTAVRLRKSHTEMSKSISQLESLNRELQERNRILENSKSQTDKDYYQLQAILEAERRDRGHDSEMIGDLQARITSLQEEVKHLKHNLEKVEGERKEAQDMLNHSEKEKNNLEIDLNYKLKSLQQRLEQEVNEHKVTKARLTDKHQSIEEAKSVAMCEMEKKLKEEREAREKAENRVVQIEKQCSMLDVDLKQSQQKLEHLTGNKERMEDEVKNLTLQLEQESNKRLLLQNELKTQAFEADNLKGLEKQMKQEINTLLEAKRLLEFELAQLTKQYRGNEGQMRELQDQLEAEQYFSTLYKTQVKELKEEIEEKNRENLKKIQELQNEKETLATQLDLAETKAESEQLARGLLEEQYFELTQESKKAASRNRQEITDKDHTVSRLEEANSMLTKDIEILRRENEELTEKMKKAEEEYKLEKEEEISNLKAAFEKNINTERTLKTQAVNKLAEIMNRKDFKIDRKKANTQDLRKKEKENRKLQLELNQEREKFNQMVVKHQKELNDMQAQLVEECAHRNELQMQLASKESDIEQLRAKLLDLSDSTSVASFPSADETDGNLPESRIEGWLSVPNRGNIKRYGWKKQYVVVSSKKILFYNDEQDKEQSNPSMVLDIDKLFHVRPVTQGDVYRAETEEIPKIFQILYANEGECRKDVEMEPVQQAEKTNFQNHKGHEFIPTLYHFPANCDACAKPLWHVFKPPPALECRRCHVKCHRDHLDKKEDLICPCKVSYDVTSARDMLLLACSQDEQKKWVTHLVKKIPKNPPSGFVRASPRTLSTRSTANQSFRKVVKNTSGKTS
In assay [4] the target is Serine/threonine-protein kinase Chk1 ; CHEK1 ; O14757 (Homo sapiens, UniProt O14757).
Assay [5] concerns the target Serine/threonine-protein kinase PAK 5 ; PAK5 ; Q9P286 (Homo sapiens, UniProt Q9P286).
Assay [6] deals with cAMP-dependent protein kinase catalytic subunit beta ; PRKACB ; P22694 (Homo sapiens, UniProt P22694).
Assay [7] addresses Ephrin type-B receptor 4 ; EPHB4 ; P54760 (Homo sapiens, UniProt P54760).
Assay [8] has as its target Dual specificity protein kinase CLK3 ; CLK3 ; P49761 (Homo sapiens, UniProt P49761).
Assay [9] concerns the target Serine/threonine-protein kinase LATS1 ; LATS1 ; O95835 (Homo sapiens, UniProt O95835).
Assay [10] deals with Tyrosine-protein kinase HCK ; HCK ; P08631 (Homo sapiens, UniProt P08631).
Assay [11] addresses Isoform 2 of Proto-oncogene tyrosine-protein kinase Src ; SRC ; P12931-2 (Homo sapiens, UniProt P12931).
In assay [12] the target is Atypical kinase COQ8A, mitochondrial ; COQ8A ; Q8NI60 (Homo sapiens, UniProt Q8NI60).
Assay [13] has as its target Ketosamine-3-kinase ; FN3KRP ; Q9HA64 (Homo sapiens, UniProt Q9HA64).
Assay [14] has as its target Mitogen-activated protein kinase 6 ; MAPK6 ; Q16659 (Homo sapiens, UniProt Q16659).
The target in assay [15] is Aurora kinase A ; AURKA ; O14965 (Homo sapiens, UniProt O14965).
Chain of Aurora kinase A ; AURKA ; O14965 (O14965 whole entry, canonical isoform): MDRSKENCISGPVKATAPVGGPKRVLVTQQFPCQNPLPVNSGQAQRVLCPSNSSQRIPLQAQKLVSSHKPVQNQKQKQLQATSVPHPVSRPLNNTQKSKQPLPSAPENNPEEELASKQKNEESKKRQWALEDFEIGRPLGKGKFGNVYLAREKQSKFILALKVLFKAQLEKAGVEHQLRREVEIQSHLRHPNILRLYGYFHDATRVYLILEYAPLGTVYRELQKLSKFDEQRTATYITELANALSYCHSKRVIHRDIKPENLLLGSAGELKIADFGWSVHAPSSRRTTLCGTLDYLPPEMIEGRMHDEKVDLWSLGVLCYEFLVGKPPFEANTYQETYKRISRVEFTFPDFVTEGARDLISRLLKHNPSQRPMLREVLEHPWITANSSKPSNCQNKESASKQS
Assay [16] concerns the target Isoform 4 of Serine/threonine-protein kinase PAK 4 ; PAK4 ; O96013-4 (Homo sapiens, UniProt O96013).
Assay [17] concerns the target cAMP-dependent protein kinase catalytic subunit alpha ; PRKACA ; P17612 (Homo sapiens, UniProt P17612).
Assay [18] has as its target Casein kinase II subunit alpha ; CSNK2A1 ; P68400 (Homo sapiens, UniProt P68400).
For assay [19], the target named is Tyrosine-protein kinase Fyn ; FYN ; P06241 (Homo sapiens, UniProt P06241).
Chain of Tyrosine-protein kinase Fyn ; FYN ; P06241 (P06241 whole entry): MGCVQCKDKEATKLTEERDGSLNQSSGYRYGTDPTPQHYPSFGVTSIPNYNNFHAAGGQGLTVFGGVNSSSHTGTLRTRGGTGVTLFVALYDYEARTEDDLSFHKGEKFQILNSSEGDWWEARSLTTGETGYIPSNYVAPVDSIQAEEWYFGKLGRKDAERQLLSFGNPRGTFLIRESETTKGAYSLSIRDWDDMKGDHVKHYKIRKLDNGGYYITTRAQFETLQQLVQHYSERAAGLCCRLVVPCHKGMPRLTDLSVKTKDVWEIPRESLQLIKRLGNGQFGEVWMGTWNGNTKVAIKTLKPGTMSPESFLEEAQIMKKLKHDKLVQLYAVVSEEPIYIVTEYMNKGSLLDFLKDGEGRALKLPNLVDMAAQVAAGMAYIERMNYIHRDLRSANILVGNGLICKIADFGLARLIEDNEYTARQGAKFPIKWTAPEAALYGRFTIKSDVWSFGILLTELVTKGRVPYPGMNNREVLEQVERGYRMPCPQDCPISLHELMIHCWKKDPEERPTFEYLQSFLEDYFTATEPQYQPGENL
The target of assay [20] is T1, Dual specificity mitogen-activated protein kinase kinase 3 ; MAP2K3 ; P46734 (Homo sapiens, UniProt P46734).
T1 sequence (P46734 1-347): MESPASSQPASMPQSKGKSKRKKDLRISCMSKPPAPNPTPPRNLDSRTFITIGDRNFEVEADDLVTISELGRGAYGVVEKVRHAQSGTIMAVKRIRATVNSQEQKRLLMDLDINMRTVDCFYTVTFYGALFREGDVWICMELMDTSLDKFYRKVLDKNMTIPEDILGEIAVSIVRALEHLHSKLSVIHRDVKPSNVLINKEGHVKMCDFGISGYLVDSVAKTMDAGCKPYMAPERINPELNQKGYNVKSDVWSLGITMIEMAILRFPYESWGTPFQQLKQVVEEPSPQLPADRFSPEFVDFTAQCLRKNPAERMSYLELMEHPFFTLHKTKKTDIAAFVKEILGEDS

In assay [21] the target is Ribosomal protein S6 kinase alpha-3 ; RPS6KA3 ; P51812 (Homo sapiens, UniProt P51812).
Setting [22] is: read-out: BAY-1143572 (10 µM) / %Intensity relative to DMSO.
[23] abbreviates: read-out: BAY-1251152 (10 µM) / %Intensity relative to DMSO.

Chain of Mitogen-activated protein kinase 6 ; MAPK6 ; Q16659 (Q16659 whole entry): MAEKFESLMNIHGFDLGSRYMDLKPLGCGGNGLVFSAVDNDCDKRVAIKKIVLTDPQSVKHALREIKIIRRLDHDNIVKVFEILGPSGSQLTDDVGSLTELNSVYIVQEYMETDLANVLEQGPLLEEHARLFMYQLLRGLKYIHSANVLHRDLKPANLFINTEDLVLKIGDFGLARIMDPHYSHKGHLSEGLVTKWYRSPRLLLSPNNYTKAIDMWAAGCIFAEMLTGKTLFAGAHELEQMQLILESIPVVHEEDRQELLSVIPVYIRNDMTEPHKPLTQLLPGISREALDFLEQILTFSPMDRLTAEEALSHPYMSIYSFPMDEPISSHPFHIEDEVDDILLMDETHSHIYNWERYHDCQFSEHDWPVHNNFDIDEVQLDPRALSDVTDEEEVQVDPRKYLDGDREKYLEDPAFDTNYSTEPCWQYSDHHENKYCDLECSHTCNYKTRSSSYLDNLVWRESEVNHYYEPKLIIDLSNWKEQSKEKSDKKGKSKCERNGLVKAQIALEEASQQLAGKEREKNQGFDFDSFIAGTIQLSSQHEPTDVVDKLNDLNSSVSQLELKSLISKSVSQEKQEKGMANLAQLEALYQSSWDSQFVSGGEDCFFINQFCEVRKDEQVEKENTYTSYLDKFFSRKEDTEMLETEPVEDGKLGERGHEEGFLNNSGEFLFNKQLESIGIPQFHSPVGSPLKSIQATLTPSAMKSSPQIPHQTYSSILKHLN
Chain of Ephrin type-B receptor 4 ; EPHB4 ; P54760 (P54760 whole entry): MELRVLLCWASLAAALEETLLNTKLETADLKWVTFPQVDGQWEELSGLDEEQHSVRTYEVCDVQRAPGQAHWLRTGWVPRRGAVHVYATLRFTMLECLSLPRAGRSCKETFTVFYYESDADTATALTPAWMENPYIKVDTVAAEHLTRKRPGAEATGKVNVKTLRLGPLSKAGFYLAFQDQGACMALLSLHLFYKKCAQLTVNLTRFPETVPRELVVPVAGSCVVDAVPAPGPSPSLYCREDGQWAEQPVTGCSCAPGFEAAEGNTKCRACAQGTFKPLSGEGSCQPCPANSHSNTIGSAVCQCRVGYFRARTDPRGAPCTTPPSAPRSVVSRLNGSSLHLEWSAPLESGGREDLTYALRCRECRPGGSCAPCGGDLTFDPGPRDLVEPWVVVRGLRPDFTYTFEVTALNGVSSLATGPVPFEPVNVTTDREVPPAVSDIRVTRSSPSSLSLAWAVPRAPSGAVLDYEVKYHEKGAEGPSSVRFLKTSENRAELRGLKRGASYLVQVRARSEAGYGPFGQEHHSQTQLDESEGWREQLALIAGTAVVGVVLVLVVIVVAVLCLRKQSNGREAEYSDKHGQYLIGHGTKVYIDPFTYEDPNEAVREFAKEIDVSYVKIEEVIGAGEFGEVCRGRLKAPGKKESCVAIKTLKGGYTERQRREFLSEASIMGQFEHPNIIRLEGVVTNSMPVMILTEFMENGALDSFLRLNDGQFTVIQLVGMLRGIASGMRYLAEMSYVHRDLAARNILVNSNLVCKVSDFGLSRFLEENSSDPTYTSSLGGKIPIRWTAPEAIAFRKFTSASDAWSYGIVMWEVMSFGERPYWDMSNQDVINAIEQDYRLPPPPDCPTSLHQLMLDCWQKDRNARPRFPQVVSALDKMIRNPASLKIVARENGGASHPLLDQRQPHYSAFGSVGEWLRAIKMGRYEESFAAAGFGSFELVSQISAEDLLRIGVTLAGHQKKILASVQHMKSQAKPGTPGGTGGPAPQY
Chain of Isoform 4 of Serine/threonine-protein kinase PAK 4 ; PAK4 ; O96013-4 (O96013 whole entry, canonical isoform, one chain of several): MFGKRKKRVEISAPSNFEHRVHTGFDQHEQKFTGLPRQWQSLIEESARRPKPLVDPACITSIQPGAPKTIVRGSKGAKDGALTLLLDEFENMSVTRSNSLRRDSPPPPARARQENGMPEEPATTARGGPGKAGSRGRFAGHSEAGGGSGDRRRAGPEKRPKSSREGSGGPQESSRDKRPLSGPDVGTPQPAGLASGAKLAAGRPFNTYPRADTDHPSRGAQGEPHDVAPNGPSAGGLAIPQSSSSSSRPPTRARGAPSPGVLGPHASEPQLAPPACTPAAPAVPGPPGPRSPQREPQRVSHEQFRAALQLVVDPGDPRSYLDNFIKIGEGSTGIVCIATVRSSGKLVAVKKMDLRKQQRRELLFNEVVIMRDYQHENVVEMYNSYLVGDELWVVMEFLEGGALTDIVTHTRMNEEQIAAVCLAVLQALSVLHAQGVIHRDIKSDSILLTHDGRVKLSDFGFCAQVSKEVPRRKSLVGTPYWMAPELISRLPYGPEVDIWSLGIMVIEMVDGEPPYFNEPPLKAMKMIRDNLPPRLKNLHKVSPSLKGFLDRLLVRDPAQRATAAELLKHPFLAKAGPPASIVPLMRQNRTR
Chain of Casein kinase II subunit alpha ; CSNK2A1 ; P68400 (P68400 whole entry, one chain of several): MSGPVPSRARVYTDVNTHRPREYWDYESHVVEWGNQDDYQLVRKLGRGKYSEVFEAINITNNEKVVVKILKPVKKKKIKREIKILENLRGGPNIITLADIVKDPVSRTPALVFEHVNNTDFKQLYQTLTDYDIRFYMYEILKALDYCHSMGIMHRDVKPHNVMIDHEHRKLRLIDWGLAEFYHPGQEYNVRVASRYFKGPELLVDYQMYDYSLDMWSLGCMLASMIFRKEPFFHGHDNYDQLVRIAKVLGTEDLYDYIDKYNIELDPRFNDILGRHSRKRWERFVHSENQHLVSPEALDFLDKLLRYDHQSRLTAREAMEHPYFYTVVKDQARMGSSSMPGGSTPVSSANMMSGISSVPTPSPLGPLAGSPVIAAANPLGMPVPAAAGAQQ

For the compound `COc1cc(F)ccc1-c1ncnc(Nc2cccc(C[S@](C)(=N)=O)c2)n1` [BAY-1143572], the remaining activity at 10 µM in assay [1] (setting [22]) came to 102%; in assay [2] (setting [22]), 101%; in assay [3] (setting [22]) it was 114%; in assay [4] (setting [22]), 106%; in assay [5] (setting [22]) it was 138%; in [6] (setting [22]) it was 111%. Also, the remaining activity at 10 µM stood at 94.1% in [7] (setting [22]); 113% in assay [8] (setting [22]); 118% in [9] (setting [22]); 108% in [10] (setting [22]); 102% in assay [11] (setting [22]); 106% in assay [12] (setting [22]). Also, the remaining activity at 10 µM worked out at 117% in assay [13] (setting [22]); 106% in [14] (setting [22]); 112% in [15] (setting [22]); 91.5% in assay [16] (setting [22]); 115% in [17] (setting [22]); 110% in [18] (setting [22]). Further, the remaining activity at 10 µM in [19] (setting [22]) amounted to 92.2%; in assay [20] (setting [22]) it was 136%; in [21] (setting [22]) it was 115%.

`COc1cc(F)ccc1-c1cc(Nc2cc(CS(C)(=N)=O)ccn2)ncc1F` (stereo not drawn) [BAY-1251152]: the remaining activity at 10 µM in assay [1] (setting [23]) was determined as 101%; in assay [2] (setting [23]), 65%; in assay [3] (setting [23]), 110%; in assay [4] (setting [23]), 110%; in [5] (setting [23]), 143%; in assay [6] (setting [23]) it was 105%. Moreover, the remaining activity at 10 µM in assay [7] (setting [23]) is 100%; in assay [8] (setting [23]) it was 115%; in assay [9] (setting [23]) it was 114%; in assay [10] (setting [23]) it was 107%; in [11] (setting [23]), 112%; in [12] (setting [23]), 113%. Further, the remaining activity at 10 µM was 114% in [13] (setting [23]); 142% in assay [14] (setting [23]); 98.6% in assay [15] (setting [23]); 95.9% in [16] (setting [23]); 101% in assay [17] (setting [23]); 105% in assay [18] (setting [23]). Besides, the remaining activity at 10 µM in assay [19] (setting [23]) amounted to 103%; in assay [20] (setting [23]) it was 119%; in assay [21] (setting [23]) it was 107%.
